Patent publication US20100029598A1, “Extended Benzamide Derivatives as Modulators of the EP2 Receptor” (Bayer Schering Pharma AG, priority 2008, published 2010)

Key:
[1] = system: cumulus-oocyte complexes (cumulus expansion); experiment: Cumulus expansion assay in vitro; type: cell-based, mice; settings: competing with PGE2
Description: 2.2 Cumulus Expansion Assay In Vitro
Folliculogenesis was induced in immature female mice (strain : CD1 (ICR) from Charles River) at an age of 14-18 days by a single dose (intraperitoneal) of 10 I.U. of PMSG (Pregnant Mare Serum Gonadotropin; Sigma G-4877, Lot 68H0909). 47-50 hours after the injection, the ovaries were removed and the cumulus-oocyte complexes were removed. The cumulus complex is not yet expanded at this stage.
The cumulus-oocyte complexes were then incubated with prostaglandin E2 (PGE2) (0.3 μM), vehicle control (ethanol) or test substances for 20-24 hours.
Medium: alpha-MEM medium with 0.1 mM IBMX, pyruvates (0.23 mM) glutamines (2 mM), pen/strep 100 IU/ml pen. and 100 μg/ml strep. and HSA (8 mg/ml). Cumulus expansion was then established through the division into four stages (according to Vanderhyden et al. Dev Biol. August 1990;140(2):307-317).

[2] = biological target: T1, human Prostaglandin E2 (Subtype EP2) receptor (Homo sapiens, UniProt P43116); experiment: cAMP antagonism assay (HTRF cAMP detection, in presence of PGE2); type: cell-based; settings: cAMP antagonism test
T1 construct: host or cells: cells in a cell culture plate
From the text: 1. Detection of the Antagonism of the Human Prostaglandin E2 (Subtype EP2) Receptor Signal
1.1 Principle of Detection
(§1) The binding of PGE2 to the EP2 subtype of the human PGE2 receptor induces activation of membrane-associated adenylate cyclases and leads to the formation of cAMP. In the presence of the phosphodiesterase inhibitor IBMX, cAMP which has accumulated due to this stimulation and been released by cell lysis is employed in a competitive detection method. In this assay, the cAMP in the lysate competes with cAMP-XL665 for binding of an Eu cryptate-labelled anti-cAMP antibody.
(§2) The two lo signals are measured in a suitable measuring instrument with a time lag, i.e. after the background fluorescence has declined.
1.2.1 Antagonism assay (data for each well of a 384-well plate):
The substance solutions (0.75 μl) introduced into an assay plate and 30% DMSO were dissolved in 16 μl of a KRSB+IBMX stimulation solution (1×Krebs-Ringer Bicarbonate Buffer; Sigma-Aldrich # K-4002; including 750 μM 3-isobutyl-1-methylxanthine Sigma-Aldrich # I-7018), and then 15 μl thereof were transferred into a media-free cell culture plate which had been washed with KRSB shortly beforehand.
After preincubation at room temperature (RT) for 30 minutes, 5 μl of a 4×PGE2 solution (11 nM) were added, and incubation was carried out in the presence of the agonist at RT for a further 60 min (volume: ˜20 μl) before the reaction was then stopped by adding 5 μl of lysis buffer and incubated at RT for a further 20 min (volume: ˜25 μl). The cell lysate was then transferred into a measuring plate and measured in accordance with the manufacturer's information (cyclic AMP kit Cisbio International #62AMPPEC).

[3] = biological target: T1, human Prostaglandin E2 (Subtype EP2) receptor; experiment: cAMP agonism assay (cellular agonism test); type: cell-based
From the text: as §1, §2
1.2.2 Agonism Assay (Data for each Well of a 384-Well Plate): […]
After incubation at room temperature (RT; volume: ˜15 μl) for 60 minutes, the reaction was then stopped by adding 5 μl of lysis buffer and incubated at RT for a further 20 min (volume: ˜20 μl). The cell lysate was then transferred into a measuring plate and measured in accordance with the manufacturer's instructions (cyclic AMP kit Cisbio International #62AMPPEC).

T1 sequence (P43116 whole entry): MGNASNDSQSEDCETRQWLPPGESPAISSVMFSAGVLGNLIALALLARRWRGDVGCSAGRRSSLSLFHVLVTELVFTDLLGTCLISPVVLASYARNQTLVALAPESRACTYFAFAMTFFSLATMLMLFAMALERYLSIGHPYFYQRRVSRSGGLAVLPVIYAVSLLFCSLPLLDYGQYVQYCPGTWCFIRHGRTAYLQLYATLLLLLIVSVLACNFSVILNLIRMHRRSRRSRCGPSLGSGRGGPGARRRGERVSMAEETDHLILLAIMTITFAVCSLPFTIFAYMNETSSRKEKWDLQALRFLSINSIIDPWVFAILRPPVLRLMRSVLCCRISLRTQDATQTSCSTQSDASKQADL

With `CC(C)Oc1ccc2c(=O)c3cc(C(=O)O)ccc3oc2c1` [AH 6809, reference compound] as the compound, how does the “suppression of cumulus expansion” value ([1]; concentration of 100-200 μM) read?
Its value is “approx. 30%”.

With `COc1ccc(C(=O)NCCc2c(C)[nH]c3c(Cl)cccc23)cc1OC` [Example 1, N-[2-(7-chloro-2-methyl-1H-indol-3-yl)ethyl]-3,4-dimethoxy-benzamide] as the compound, how does the IC50 [2] read?
The IC50 was 320 nM.

`COc1ccc(C(=O)NCCc2c(C)[nH]c3c(Cl)ccc(Cl)c23)cc1OC` [Example 5, N-[2-(4,7-dichloro-2-methyl-1H-indol-3-yl)ethyl]-3,4-dimethoxybenzamide] was tested. Which IC50 [2] did it give?
The IC50 was 1900 nM.

`Cc1[nH]c2c(Cl)cccc2c1CCNC(=O)c1cc2cc(F)ccc2[nH]1` [Example 7, N-[2-(7-chloro-2-methyl-1H-indol-3-yl)ethyl]-5-fluoro-1H-indole-2-carboxamide] was tested. Which “effect in the cellular agonism test” value [3] did it give?
The value was “no inhibition”.

And the IC50 [2]?
The IC50 was 47 nM.

Which IC50 [2] does the source give for `Cc1[nH]c2c(Cl)ccc(F)c2c1CCNC(=O)c1cc2cc(F)ccc2[nH]1` [Example 8, N-[2-(7-chloro-4-fluoro-2-methyl-1H-indol-3-yl)ethyl]-5-fluoro-1H-indole-2-carboxamide] here?
The IC50 was 120 nM.

What about the “suppression of cumulus expansion” value ([1]; concentration 5 μM) of the same compound?
Its value is “approx. 60%”.

How did the IC50 [2] turn out when `COc1ccc(C(=O)NCCc2c(C)[nH]c3c(Cl)ccc(C)c23)cc1OC` [Example 17, N-[2-(7-chloro-2,4-dimethyl-1H-indol-3-yl)ethyl]-3,4-di-methoxybenzamide] was run?
The IC50 was 720 nM.

For `O=C(NCCc1c(C(F)(F)F)[nH]c2c(Cl)cccc12)c1cc2cc(Cl)ccc2[nH]1` [Example 30, N-[2-(7-chloro-2-trifluoromethyl-1H-indol-3-yl)ethyl]-5-chloro-1H-indole-2-carboxamide], which IC50 [2] is on record?
Its IC50 is 670 nM.
